According to ChEMBL document CHEMBL1201862, “PubChem BioAssay data set” (2004):
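Exposure lasted 48 hours, with cells grown in 96-well plates and compounds tested at five concentrations. GI50 marks 50% less growth.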 Activity calls are given as the source filed them. No stated cut-off is given here; in the data, active = GI50 up to about 1.1 µM and inactive = higher.

Experiments:
Assay in all cases: growth of human tumour cells (NCI), 48 h
CAKI-1 = system: CAKI-1
DU-145 = system: DU-145
IGROV-1 = system: IGROV-1
K562 = system: K562
KM12 = system: KM12
MDA-MB-231 = system: MDA-MB-231
MDA-MB-435 = system: MDA-MB-435
NCI-H23 = system: NCI-H23
NCI/ADR-RES = system: NCI/ADR-RES
OVCAR-3 = system: OVCAR-3
OVCAR-5 = system: OVCAR-5
PC-3 = system: PC-3
RXF 393 = system: RXF 393
SF-268 = system: SF-268
SF-539 = system: SF-539
SW-620 = system: SW-620
TK-10 = system: TK-10

SMILES	GI50 (CAKI-1)	GI50 (DU-145)	GI50 (IGROV-1)	GI50 (K562)	GI50 (KM12)	GI50 (MDA-MB-231)	GI50 (MDA-MB-435)	GI50 (NCI-H23)	GI50 (NCI/ADR-RES)	GI50 (OVCAR-3)	GI50 (OVCAR-5)	GI50 (PC-3)	GI50 (RXF 393)	GI50 (SF-268)	GI50 (SF-539)	GI50 (SW-620)	GI50 (TK-10)
c1ccc2cc(-c3cc(-c4cc(-c5ccc6ccccc6c5)on4)no3)ccc2c1	> 100 µM (inactive)	> 100 µM (inactive)	> 100 µM (inactive)	> 100 µM (inactive)	> 100 µM (inactive)	> 100 µM (inactive)	> 100 µM (inactive)	> 100 µM (inactive)	> 100 µM (inactive)	> 100 µM (inactive)	> 100 µM (inactive)	> 100 µM (inactive)	> 100 µM (inactive)	> 100 µM (inactive)	> 100 µM (inactive)	> 100 µM (inactive)	> 100 µM (inactive)
CSc1nn(C)cc2ncnc1-2	> 100 µM (inactive)	> 100 µM (inactive)	> 100 µM (inactive)	> 100 µM (inactive)	> 100 µM (inactive)	> 100 µM (inactive)	> 100 µM (inactive)	> 100 µM (inactive)	> 100 µM (inactive)	> 100 µM (inactive)	> 100 µM (inactive)	> 100 µM (inactive)	> 100 µM (inactive)	> 100 µM (inactive)	> 100 µM (inactive)	> 100 µM (inactive)	> 100 µM (inactive)
O=C1Nc2c(Cl)cccc2/C1=N/Nc1ccccc1[N+](=O)[O-]	11.7 µM (inactive)	16.4 µM (inactive)	1.9 µM (inactive)	36.9 µM (inactive)	8.89 µM (inactive)	4.97 µM (inactive)	28.2 µM (inactive)	13.5 µM (inactive)	11.5 µM (inactive)	44.4 µM (inactive)	50.7 µM (inactive)	31.9 µM (inactive)	31.9 µM (inactive)	11.4 µM (inactive)	16.7 µM (inactive)	32.7 µM (inactive)	11.5 µM (inactive)
C1=Cc2cccc3occ(c23)C=C1	> 100 µM (inactive)	> 100 µM (inactive)	54.2 µM (inactive)	16.3 µM (inactive)	43 µM (inactive)	> 100 µM (inactive)	82 µM (inactive)	84.5 µM (inactive)	> 100 µM (inactive)	31.2 µM (inactive)	> 100 µM (inactive)	66.4 µM (inactive)	25.8 µM (inactive)	> 100 µM (inactive)	37.4 µM (inactive)	39.1 µM (inactive)	36 µM (inactive)
CCOc1c(OC)cc(CNNc2nccs2)cc1OC	> 100 µM (inactive)	15 µM (inactive)	> 100 µM (inactive)	24 µM (inactive)	> 100 µM (inactive)	94.2 µM (inactive)	54.2 µM (inactive)	62.4 µM (inactive)	70.6 µM (inactive)	> 100 µM (inactive)	4.57 µM (inactive)	41.9 µM (inactive)	> 100 µM (inactive)	> 100 µM (inactive)	> 100 µM (inactive)	> 100 µM (inactive)	> 100 µM (inactive)
CC[C@@]1(O)C[C@H](OC2CC(N(C)C)C(O)C(C)O2)c2c(O)c3c(c(O)c2[C@H]1OC1CC(N(C)C)C(O)C(C)O1)C(=O)c1cccc(O)c1C3=O (some centres not stated)	0.0195 µM (active)	0.182 µM (active)	0.0706 µM (active)	0.0267 µM (active)	0.028 µM (active)	0.0341 µM (active)	0.0341 µM (active)	0.057 µM (active)	0.177 µM (active)	0.051 µM (active)	0.0838 µM (active)	0.0361 µM (active)	0.0255 µM (active)	0.0603 µM (active)	0.0531 µM (active)	0.0378 µM (active)	0.0473 µM (active)
COc1cc(/C=C2\C[C@H]3[C@@H]4CC=C5C[C@@H](O)CC[C@]5(C)[C@H]4CC[C@]3(C)[C@H]2O)cc(OC)c1OC	20.2 µM (inactive)	18.3 µM (inactive)	27.8 µM (inactive)	5.97 µM (inactive)	10.1 µM (inactive)	11.4 µM (inactive)	20 µM (inactive)	10.3 µM (inactive)	12.9 µM (inactive)	12.2 µM (inactive)	26.3 µM (inactive)	16.6 µM (inactive)	5.58 µM (inactive)	54.8 µM (inactive)	14.3 µM (inactive)	26.2 µM (inactive)	14.1 µM (inactive)
CSC(=S)N/N=C(\C)c1cccc(C)n1	1.1 µM (active)	0.845 µM (active)	1.61 µM (inactive)	0.042 µM (active)	2.26 µM (inactive)	1.85 µM (inactive)	1.35 µM (inactive)	0.975 µM (active)	1.36 µM (inactive)	0.0568 µM (active)	5.77 µM (inactive)	0.265 µM (active)	0.998 µM (active)	0.708 µM (active)	1.17 µM (inactive)	0.208 µM (active)	0.975 µM (active)
CC(=O)OCC1OC(O[C@@H]2C[C@H]3C(C)(C)[C@@H](OC(C)=O)CC[C@]3(C)[C@H]3CC[C@]45C[C@]4(CC[C@H]5[C@@H](C)C[C@@H](O)[C@H](O)C(C)(C)F)[C@@]32C)C(O)C(O)C1O (some centres not stated)	63.4 µM (inactive)	> 100 µM (inactive)	2.06 µM (inactive)	1.6 µM (inactive)	16.2 µM (inactive)	25.8 µM (inactive)	8.04 µM (inactive)	2.22 µM (inactive)	10.5 µM (inactive)	30.1 µM (inactive)	1.47 µM (inactive)	10.6 µM (inactive)	57.5 µM (inactive)	1.47 µM (inactive)	1.81 µM (inactive)	1.85 µM (inactive)	57.9 µM (inactive)
Nc1ccc(-c2ncc3cc(-c4cccc(-c5cc6cnc(-c7ccc(N)cc7)nc6c6ccccc56)c4)c4ccccc4c3n2)cc1	> 100 µM (inactive)	> 100 µM (inactive)	> 100 µM (inactive)	> 100 µM (inactive)	> 100 µM (inactive)	> 100 µM (inactive)	> 100 µM (inactive)	> 100 µM (inactive)	> 100 µM (inactive)	> 100 µM (inactive)	> 100 µM (inactive)	> 100 µM (inactive)	> 100 µM (inactive)	> 100 µM (inactive)	> 100 µM (inactive)	> 100 µM (inactive)	> 100 µM (inactive)
NC(=O)CC(N)C(=O)NC(Cc1ccccc1)C(=O)NC(Cc1ccccc1)NC(=O)C(Cc1c[nH]c2ccccc12)C(=O)O (configuration not stated)	> 100 µM (inactive)	> 100 µM (inactive)	> 100 µM (inactive)	> 100 µM (inactive)	> 100 µM (inactive)	> 100 µM (inactive)	> 100 µM (inactive)	> 100 µM (inactive)	> 100 µM (inactive)	> 100 µM (inactive)	> 100 µM (inactive)	> 100 µM (inactive)	> 100 µM (inactive)	> 100 µM (inactive)	> 100 µM (inactive)	> 100 µM (inactive)	> 100 µM (inactive)
CC(C)[Si](OC1=C(C(=O)N(C)c2cccc(Cl)c2)CCCC1)(C(C)C)C(C)C	13.2 µM (inactive)	11.7 µM (inactive)	17.2 µM (inactive)	4.94 µM (inactive)	13.5 µM (inactive)	16 µM (inactive)	15.5 µM (inactive)	11.7 µM (inactive)	12.6 µM (inactive)	14 µM (inactive)	10.1 µM (inactive)	8.61 µM (inactive)	3.4 µM (inactive)	13.3 µM (inactive)	17.3 µM (inactive)	13.6 µM (inactive)	15.4 µM (inactive)
Cc1nccn1S(=O)(=O)c1ccc(Cl)cc1	42 µM (inactive)	81.8 µM (inactive)	37.4 µM (inactive)	37.8 µM (inactive)	42.5 µM (inactive)	31.9 µM (inactive)	22.7 µM (inactive)	39.6 µM (inactive)	43.6 µM (inactive)	54.8 µM (inactive)	64.6 µM (inactive)	99.8 µM (inactive)	52 µM (inactive)	47.9 µM (inactive)	32.7 µM (inactive)	65.2 µM (inactive)	72.8 µM (inactive)
Cn1cnc(N2CCCC2)c(C#N)c1=S	35.9 µM (inactive)	> 100 µM (inactive)	> 100 µM (inactive)	> 100 µM (inactive)	> 100 µM (inactive)	> 100 µM (inactive)	> 100 µM (inactive)	> 100 µM (inactive)	> 100 µM (inactive)	> 100 µM (inactive)	> 100 µM (inactive)	> 100 µM (inactive)	> 100 µM (inactive)	> 100 µM (inactive)	> 100 µM (inactive)	> 100 µM (inactive)	> 100 µM (inactive)
NCCCn1c2ccccc2c2c3c(c4c(c21)CCC(O)CC4)C(=O)NC3=O (configuration not stated)	3.66 µM (inactive)	3.7 µM (inactive)	9.79 µM (inactive)	0.69 µM (active)	0.458 µM (active)	1.85 µM (inactive)	1.53 µM (inactive)	2.45 µM (inactive)	13 µM (inactive)	2.55 µM (inactive)	2.24 µM (inactive)	3.48 µM (inactive)	2.15 µM (inactive)	1.58 µM (inactive)	6.61 µM (inactive)	1.04 µM (active)	3.57 µM (inactive)
Brc1ccc2c(-c3csc(-c4c[nH]c5cc(Br)ccc45)n3)c[nH]c2c1	43.6 µM (inactive)	19.5 µM (inactive)	17 µM (inactive)	4.75 µM (inactive)	11.8 µM (inactive)	21 µM (inactive)	5.27 µM (inactive)	18.5 µM (inactive)	16 µM (inactive)	52.1 µM (inactive)	26.6 µM (inactive)	23.7 µM (inactive)	23.4 µM (inactive)	31.2 µM (inactive)	19.6 µM (inactive)	16 µM (inactive)	30.8 µM (inactive)
